Measured values taken from patent publication US6939845B2, “Fragrance precursors” (Givaudan SA, priority 2000, dated 2005).

Experiment: Stability tests in aqueous buffer solutions
Type: physicochemical
Conditions: for Stability at pH 2.5: aqueous buffer pH 2.5, 24 h at 37° C.; for Stability at pH 7: aqueous buffer pH 7, 24 h at 37° C.; for Stability at pH 9.5: aqueous buffer pH 9.5, 24 h at 37° C.

Stability at pH 2.5	Stability at pH 7	Stability at pH 9.5	Structure (SMILES)
unstable	stable	stable	CCCCCCCC1CCC(OCC(=O)c2ccc(OC)cc2)O1 (stereo not drawn) [compound 4, 2-(5-Heptyl-tetrahydro-furan-2-yloxy)-1-(4-methoxy-phenyl)-ethanone]
unstable	stable	stable	C/C=C/CCC1CCCC(OCC(=O)c2ccc3ccccc3c2)O1 (stereo not drawn) [compound 6, 1-(Naphtalen-2-yl)-2-(6-pent-3-enyl-tetrahydro-pyran-2-yloxy)-ethanone]
unstable	stable	stable	CCCCCCCC1CCC(OCC(=O)c2ccc3ccccc3c2)O1 (stereo not drawn) [compound 3, 2-(5-Heptyl-tetrahydro-furan-2-yloxy)-1-naphtalen-2-yl-ethanone]
stable	stable	stable	CCCCCCCC1CCC(OCC(=O)c2cc3c(cc2C)C(C)(C)C(C)CC3(C)C)O1 (stereo not drawn) [compound 2, 2-(5-Heptyl-tetrahydro-furan-2-yloxy)-1-(3,5,5,6,8,8-hexamethyl-5,6,7,8-tetrahydro-naphtalen-2-yl)-ethanone]
stable	stable	stable	C/C=C/CCC1CCCC(OCC(=O)c2cc3c(cc2C)C(C)(C)C(C)CC3(C)C)O1 (stereo not drawn) [compound 5, 1-(3,5,5,6,8,8-Hexamethyl-5,6,7,8-tetrahydro-naphthalen-2-yl)-2-(6-pent-3-enyl-tetrahydro-pyran-2-yloxy)-ethanone]
stable	stable	stable	Cc1cc2c(cc1C(=O)COC1CCC3(CCC(C)CC3)O1)C(C)(C)CC(C)C2(C)C (stereo not drawn) [compound 1, 1-(3,5,5,6,8,8-Hexamethyl-5,6,7,8-tetrahydro-naphtalen-2-yl)-2-(8-methyl-1-oxa-spiro[4.5]dec-2-yloxy)-ethanone]
